From publication PMC4161441, “Unravelling the Multiple Functions of the Architecturally Intricate Streptococcus pneumoniae β-galactosidase, BgaA” (PLoS Pathogens, 2014)
pKd, pKi: −log10 of the molar value.

Columns and labels:
CBM71-2 [1] = molecular target: T1, CBM71-2 (Streptococcus pneumoniae, UniProt Q8DQP4); test: UV difference spectroscopy; assay type: binding; conditions: 25 °C; too weak to quantify
T1 construct: gene bgaA; pET28-based expression in E. coli; exact borders not in text

CBM71-1 [2] = molecular target: T2, CBM71-1 (Streptococcus pneumoniae, UniProt Q8DQP4); test: UV difference spectroscopy; assay type: binding; conditions: 25 °C; too weak to quantify
T2 construct: gene bgaA; pET28-based expression in E. coli; exact borders not in text

CBM71-2 [3] = molecular target: T1, CBM71-2; test: isothermal titration calorimetry; assay type: binding; conditions: PBS, 25 °C
CBM71-1 [4] = molecular target: T2, CBM71-1; test: isothermal titration calorimetry; assay type: binding; conditions: PBS, 25 °C
[5] = molecular target: T3, BgaA catalytic region (GH2; SpBgaA) (Streptococcus pneumoniae, UniProt A0A0H2UP19); test: isothermal titration calorimetry; assay type: binding
T3 construct: N-terminal catalytic region, domains I-V (GH2 region printed as residues 138-993; SpBgaA146-990 in cell assay); pET28-based expression in E. coli; source strain and exact borders not in main text

[6] = molecular target: T3, BgaA catalytic region (GH2; SpBgaA); test: steady-state kinetics, UV-visible spectrophotometry; apparent Km/Vmax against inhibitor concentration; assay type: biochemical

T2 sequence (Q8DQP4 entry or part of it): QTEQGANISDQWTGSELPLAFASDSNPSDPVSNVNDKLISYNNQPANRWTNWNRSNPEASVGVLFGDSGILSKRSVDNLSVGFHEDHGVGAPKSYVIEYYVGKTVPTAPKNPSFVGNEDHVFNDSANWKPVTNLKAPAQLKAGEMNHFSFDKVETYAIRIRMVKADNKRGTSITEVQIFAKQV
T1 sequence (Q8DQP4 entry or part of it): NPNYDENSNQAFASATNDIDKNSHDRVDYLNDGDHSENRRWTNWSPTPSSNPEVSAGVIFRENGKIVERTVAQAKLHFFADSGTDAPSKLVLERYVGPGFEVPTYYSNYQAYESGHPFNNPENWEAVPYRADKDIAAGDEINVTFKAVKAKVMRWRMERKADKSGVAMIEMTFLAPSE

| SMILES | pKd (CBM71-2 [3]) | pKd (CBM71-1 [4]) | pKi [6] | further results |
| --- | --- | --- | --- | --- |
| OC[C@H]1OC(O)[C@H](O)[C@@H](O)[C@H]1O (stereo partly drawn) [D-galactose] | – | – | – | UV difference spectroscopy (CBM71-2 [1]): For both CBMs, the binding to galactose was too weak to quantify; UV difference spectroscopy (CBM71-1 [2]): only D-galactose gave a signature UV difference spectrum consistent with sugar binding |
| CC(=O)N[C@H]1C(O)O[C@H](CO)[C@@H](O[C@@H]2O[C@H](CO)[C@H](O)[C@H](O)[C@H]2O)[C@@H]1O (stereo partly drawn) [LacNAc] | 3.61 | 3.60 | – | – |
| OC[C@H]1CNC[C@@H](O)[C@H]1O [galactoisofagomine] | – | – | 7.60 | pKd [5]: 7.59 |
| OC[C@H]1NC(O)[C@H](O)[C@@H](O)[C@H]1O (stereo partly drawn) [galactonojirimycin] | – | – | 4.47 | – |
| OC[C@H]1O[C@@H](O[C@H]2[C@H](O)[C@@H](O)C(O)O[C@@H]2CO)[C@H](O)[C@@H](O)[C@H]1O (stereo partly drawn) [lactose] | 3.42 | 3.43 | – | – |
